Experiments:
[1] = molecular target: Glucocorticoid Receptor GR (Homo sapiens (Human), UniProt P04150); experiment: Binding activity to glucocorticoid receptor GR (Polarscreen fluorescence polarization kit); details: GR full length, 2 h
Procedure: The binding activity of the compound to GR was determined using the Polarscreen Glucocorticoid Receptor Assay Kit, Red (brand: Thermo, Cat. No: A15898). […] The highest concentration was 100 μM, 8 concentrations in total. […] With the log value of the final concentration of the compound as the X axis and the mP value as the Y axis, data was input into the processing software Graphpad Prism 9, and the EC50 value was calculated by four-parameter fitting

CHS mouse model = experiment: Efficacy test in CHS mouse model (FITC sensitization, right ear thickness); type: in vivo, C57BL/6N mice; details: 3 μg/mouse
Procedure: Construction of CHS mouse model: 6- to 8-week-old female C57BL/6N mice (Beijing Vital River Laboratory Animal Technology Co., Ltd.) were selected, and all mice were shaved off abdominal hair using a small animal hair clipper. 400 μL of the sensitizer was pipetted with a micropipette and applied evenly to the abdomen of the mice for epidermal sensitization. After application, the mice were held for 3-5 s and the solvent was allowed to evaporate from the skin as clean as possible. The specific preparation method for the sensitizer was: 0.5 g of FITC (fluorescein isothiocyanate; sigma-Aldrich) powder was weighed and fully dissolved in a solvent of 50 mL of acetone (SinoPharm reagent) and 50 mL of DBP (dibutyl phthalate; sigma-Aldrich) in equal proportion to give the sensitizer with the FITC content of 0.5%. On the 6th day after sensitization, the thickness of the right ear of the mice was measured with a dial thickness gauge as a baseline value, then a freshly prepared sensitizer was pipetted with a micropipette and applied evenly inside and outside of the right ear of the mice respectively for epidermal stimulation, and 10 μL of the sensitizer was applied on each side. 24 h after stimulation, the thickness of the right ear of the mice was measured again with a dial thickness gauge to obtain the thickness change of the right ear of the mice, A thickness of right ear=(thickness of right ear 24 h after stimulation)−(baseline value of thickness of right ear).
Therapeutic regimen for CHS model mouse: mice were divided into a blank group, a negative control group, a positive control group, and an experimental group. […] The drug was administered by one-time intraperitoneal injection 1 h before the right ear epidermal stimulation.

[2] = Plasma protein binding rate, human plasma (equilibrium dialysis); type: in vitro ADME; details: pH 7.4, equilibrium dialysis 6 h, 37° C.
Procedure: (§1) The protein binding rates of the compound of the present invention in plasma of 5 species (humans, monkeys, dogs, rats, and mice) were determined using the following method.
(§2) • 1. Human plasma (BioIVT), monkey plasma (ADME-plasma-pooled monkey-05212020), beagle dog plasma (BioIVT), SD rat plasma (BioIVT), and CD-1 mouse plasma (BioIVT) • 2. Na2HPO4 (Sigma S5136-500G) • 3. NaH2PO4 (Sigma S3139-500G) • 4. NaCl (Sigma S5886-IKG) • 5. 96-well equilibrium dialysis plate (HTDialysis LLC, Gales Ferry, CT, HTD96B) and equilibrium dialysis membrane (MWCO 12-14K, 1101) • 6. Positive control compound warfarin • 7. ABI QTrap 5500 liquid chromatography-mass spectrometry system
(§3) • 1. […] Preparation of a dialysis membrane: the dialysis membrane was soaked in ultrapure water for 60 min to separate the membrane into two pieces, then soaked with 20% ethanol for 20 min, and finally soaked with dialysis buffer for 20 min. • 3. Preparation of plasma: the frozen plasma was quickly thawed at room temperature and then centrifuged at 3,220 g at 4° C. for 10 min to remove clots, and the supernatant was collected to a new centrifuge tube. The pH of the plasma was measured and recorded. The plasma with pH 7-8 was used. • 4. […]
(§4) The peak areas of the compound on the buffer side and the plasma side were measured. The plasma protein binding rate of the compound was calculated by the following formula: […]

[3] = Plasma protein binding rate, mouse plasma (equilibrium dialysis); type: in vitro ADME; details: CD-1, mouse, pH 7.4, equilibrium dialysis 6 h, 37° C.
Procedure: as §1, §2, §3, §4

Sequence of Glucocorticoid Receptor GR (P04150 whole entry): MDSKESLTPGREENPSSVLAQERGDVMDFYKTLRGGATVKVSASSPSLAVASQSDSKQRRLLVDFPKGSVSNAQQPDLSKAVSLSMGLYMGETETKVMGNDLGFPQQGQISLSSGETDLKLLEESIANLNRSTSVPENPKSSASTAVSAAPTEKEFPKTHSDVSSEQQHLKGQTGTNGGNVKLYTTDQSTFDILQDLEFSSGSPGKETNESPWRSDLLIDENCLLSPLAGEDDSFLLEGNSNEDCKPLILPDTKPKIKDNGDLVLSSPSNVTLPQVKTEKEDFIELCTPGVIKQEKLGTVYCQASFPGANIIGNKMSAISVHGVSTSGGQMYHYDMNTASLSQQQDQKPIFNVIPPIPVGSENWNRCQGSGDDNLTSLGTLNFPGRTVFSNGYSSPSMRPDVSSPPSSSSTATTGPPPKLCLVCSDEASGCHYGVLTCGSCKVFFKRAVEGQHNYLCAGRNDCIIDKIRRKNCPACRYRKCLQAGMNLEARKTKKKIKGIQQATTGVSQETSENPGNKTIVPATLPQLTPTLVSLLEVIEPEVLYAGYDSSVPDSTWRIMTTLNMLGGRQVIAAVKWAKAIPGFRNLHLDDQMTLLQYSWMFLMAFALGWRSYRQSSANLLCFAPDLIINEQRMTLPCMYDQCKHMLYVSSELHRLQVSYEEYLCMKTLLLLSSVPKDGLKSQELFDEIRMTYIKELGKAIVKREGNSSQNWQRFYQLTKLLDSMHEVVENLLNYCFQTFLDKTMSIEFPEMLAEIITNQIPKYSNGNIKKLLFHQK

## C[C@]12C=CC(=O)C=C1CC[C@@H]1[C@@H]2[C@@H](O)C[C@@]2(C)[C@H]1C[C@H]1O[C@@H](c3ccc(Cc4cc(N)c5c(c4)CCO5)cc3)O[C@]12C(=O)CO [Compound 009, (6aR,6bS,7S,8aS,8bS,10R,11aR,12aS,12bS)-10-(4-((7-amino-2,3-dihydrobenzofuran-5-yl)methyl)phenyl)-7-hydroxy-8b-(2-hydroxyacetyl)-6a,8a-dimethyl-6a,6b,7,8,8a,8b,11a,12,12a,12b-decahydro-1H-naphtho[2′,1′:4,5]indeno[1,2-d][1,3]dioxolan-4(2H)-one]
[1]
  EC50: 20.2 nM
CHS mouse model; one-time intraperitoneal injection 1 h before right ear stimulation, measured 24 h after stimulation
  thickness of the right ear in CHS mice compared to the negative control group: significant decrease
CHS mouse model; one-time intraperitoneal injection, CHS mice, right ear thickness
  efficacy compared with positive reference compound a at the same dose: superior in efficacy to the positive reference compound a
[2]
  fraction unbound at 6 h, 1 μM: 0.002
[3]
  fraction unbound at 6 h, 1 μM: 0.002

Source: patent US20240307415A1, “STEROID COMPOUND, AND PHARMACEUTICAL COMPOSITION THEREOF AND USE THEREOF” (JIANGSU SIMCERE PHARMACEUTICAL CO., LTD., priority 2021, published 2024)
